Reference: the supplement of paper PMC10307832

Tests used:
Assay in all cases: relative viability (nuclei count vs DMSO), 5 days (fraction); higher = more cells survive
AT9283 + Olaparib = compound: O=C(Nc1c[nH]nc1-c1nc2ccc(CN3CCOCC3)cc2[nH]1)NC1CC1 [AT9283] + O=C(c1cc(Cc2n[nH]c(=O)c3ccccc23)ccc1F)N1CCN(C(=O)C2CC2)CC1 [Olaparib] (partner 8 µM)
Summary of the method: (§1)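 Each reported value is a median over duplicate plates. It expresses relative viability: treated-well nuclei count divided by vehicle-well nuclei count. Lung cancer cell lines in 1536-well plates were dosed by pin tool a day after seeding, alone with one drug or with a fixed anchor-drug dose plus five library-drug doses (not always all listed) in √10 steps, and nuclei were counted after 5 days.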

Erlotinib + OSI-027 = compound: C#Cc1cccc(Nc2ncnc3cc(OCCOC)c(OCCOC)cc23)c1 [Erlotinib] + COc1cccc2cc(-c3nc([C@H]4CC[C@H](C(=O)O)CC4)n4ncnc(N)c34)[nH]c12 [OSI-027] (partner 0.5 µM)
Summary of the method: as §1

AT9283 + Foretinib = compound: O=C(Nc1c[nH]nc1-c1nc2ccc(CN3CCOCC3)cc2[nH]1)NC1CC1 [AT9283] + COc1cc2c(Oc3ccc(NC(=O)C4(C(=O)Nc5ccc(F)cc5)CC4)cc3F)ccnc2cc1OCCCN1CCOCC1 [Foretinib] (partner 0.25 µM)
Summary of the method: as §1

Erlotinib + Vorinostat = compound: C#Cc1cccc(Nc2ncnc3cc(OCCOC)c(OCCOC)cc23)c1 [Erlotinib] + O=C(CCCCCCC(=O)Nc1ccccc1)NO [Vorinostat] (partner 1 µM)
Summary of the method: as §1

AT9283 + Pictilisib = compound: O=C(Nc1c[nH]nc1-c1nc2ccc(CN3CCOCC3)cc2[nH]1)NC1CC1 [AT9283] + CS(=O)(=O)N1CCN(Cc2cc3nc(-c4cccc5[nH]ncc45)nc(N4CCOCC4)c3s2)CC1 [Pictilisib] (partner 1 µM)
Summary of the method: as §1

| Cell Line | relative viability (AT9283 + Olaparib; first compound 0.003 µM) | relative viability (AT9283 + Olaparib; first compound 0.03 µM) | relative viability (AT9283 + Olaparib; first compound 0.09487 µM) | relative viability (AT9283 + Olaparib; first compound 0.3 µM) | relative viability (Erlotinib + OSI-027; first compound 0.02 µM) | relative viability (Erlotinib + OSI-027; first compound 0.2 µM) | relative viability (Erlotinib + OSI-027; first compound 0.6325 µM) | relative viability (Erlotinib + OSI-027; first compound 2 µM) | relative viability (AT9283 + Foretinib; first compound 0.003 µM) | relative viability (AT9283 + Foretinib; first compound 0.03 µM) | relative viability (AT9283 + Foretinib; first compound 0.09487 µM) | relative viability (AT9283 + Foretinib; first compound 0.3 µM) | relative viability (Erlotinib + Vorinostat; first compound 0.02 µM) | relative viability (Erlotinib + Vorinostat; first compound 0.2 µM) | relative viability (Erlotinib + Vorinostat; first compound 0.6325 µM) | relative viability (Erlotinib + Vorinostat; first compound 2 µM) | relative viability (AT9283 + Pictilisib; first compound 0.003 µM) | relative viability (AT9283 + Pictilisib; first compound 0.03 µM) | relative viability (AT9283 + Pictilisib; first compound 0.09487 µM) | relative viability (AT9283 + Pictilisib; first compound 0.3 µM) |
| --- | --- | --- | --- | --- | --- | --- | --- | --- | --- | --- | --- | --- | --- | --- | --- | --- | --- | --- | --- | --- |
| LOU-NH91 | 0.915 | 0.774 | 0.512 | 0.441 | 0.506 | 0.47 | 0.473 | 0.43 | 0.913 | 0.887 | 0.548 | 0.375 | 0.803 | 0.713 | 0.785 | 0.703 | 0.469 | 0.487 | 0.482 | 0.394 |
| LU99A | 0.258 | 0.214 | 0.14 | 0.123 | 0.295 | 0.303 | 0.284 | 0.259 | 0.751 | 0.34 | 0.233 | 0.237 | 0.505 | 0.507 | 0.49 | 0.468 | 0.293 | 0.185 | 0.152 | 0.164 |
| LXF-289 | 1.13 | 0.98 | 0.0877 | 0.0796 | 0.79 | 0.766 | 0.721 | 0.551 | 1 | 0.571 | 0.225 | 0.109 | 0.824 | 0.762 | 0.66 | 0.758 | 0.727 | 0.668 | 0.0746 | 0.0864 |
| NCI-H23 | 0.334 | 0.297 | 0.3 | 0.211 | 0.769 | 0.519 | 0.509 | 0.407 | 0.985 | 0.717 | 0.412 | 0.32 | 0.704 | 0.502 | 0.666 | 0.485 | 0.457 | 0.267 | 0.213 | 0.153 |
| NCI-H322M | 0.834 | 0.58 | 0.518 | 0.453 | 0.533 | 0.483 | 0.406 | 0.394 | 0.958 | 0.544 | 0.41 | 0.462 | 0.832 | 0.716 | 0.688 | 0.546 | 0.498 | 0.413 | 0.294 | 0.298 |
| NCI-H358 | 0.513 | 0.202 | 0.091 | 0.105 | 0.82 | 0.458 | 0.407 | 0.152 | 0.653 | 0.155 | 0.0898 | 0.0981 | 0.693 | 0.292 | 0.419 | 0.221 | 0.278 | 0.171 | 0.141 | 0.132 |
| NCI-H460 | 0.479 | 0.307 | 0.127 | 0.113 | – | 0.547 | 0.469 | 0.217 | 0.983 | 0.907 | 0.184 | 0.0594 | 0.832 | 0.734 | 0.969 | 0.601 | 0.305 | 0.302 | 0.0565 | 0.0907 |
| NCI-H520 | 0.32 | 0.205 | 0.223 | 0.22 | 0.282 | 0.387 | 0.271 | 0.226 | 0.95 | 0.326 | 0.337 | 0.295 | 0.718 | 0.693 | 0.83 | 0.71 | 0.259 | 0.247 | 0.216 | 0.171 |
| NCI-H596 | 0.653 | 0.663 | 0.619 | 0.567 | 0.675 | 0.528 | 0.537 | 0.408 | 0.813 | 0.822 | 0.744 | 0.59 | 0.683 | 0.636 | 0.606 | 0.583 | 0.391 | 0.415 | 0.412 | 0.373 |
| NCI-H647 | 0.555 | 0.311 | 0.0867 | 0.0596 | 0.594 | 0.606 | – | 0.449 | 1.41 | 0.396 | 0.273 | 0.202 | 0.735 | 0.485 | 0.556 | 0.565 | 0.43 | 0.159 | 0.0749 | 0.085 |
| NCI-H650 | 0.396 | 0.399 | 0.215 | 0.146 | 0.506 | 0.594 | 0.515 | 0.405 | 1.08 | 0.958 | 0.332 | 0.154 | 0.487 | 0.496 | 0.59 | 0.449 | 0.853 | 0.816 | 0.274 | 0.186 |
| NCI-H661 | 0.759 | 0.499 | 0.371 | 0.418 | 0.748 | 0.707 | 0.655 | 0.443 | 1.01 | 0.472 | 0.384 | 0.364 | 0.834 | 0.758 | 0.775 | 0.646 | 0.296 | 0.382 | 0.334 | 0.292 |
| NCI-H727 | 0.84 | 0.768 | 0.494 | 0.496 | 0.768 | 0.584 | 0.461 | 0.52 | 0.689 | 0.649 | 0.437 | 0.331 | 1.29 | 1.24 | 1.03 | 1.01 | 0.379 | 0.395 | 0.225 | 0.167 |
| NCI-H838 | 0.745 | 0.323 | 0.183 | 0.164 | 0.421 | 0.474 | 0.359 | 0.319 | 1.05 | 0.427 | 0.262 | 0.281 | 0.821 | 0.694 | 0.703 | 0.684 | 0.544 | 0.265 | 0.182 | 0.216 |
| NCI-H1355 | 0.803 | 0.708 | 0.329 | 0.246 | 0.382 | 0.387 | 0.325 | 0.296 | 0.871 | 0.952 | 0.582 | 0.272 | 0.668 | 0.633 | 0.602 | 0.521 | 0.435 | 0.345 | 0.168 | 0.159 |
